{"source": "the NIST ThermoML archive (doi:10.1016/j.tca.2012.03.022)", "assay": "molar heat capacity at constant pressure; wn = mass fraction of the nth substance listed", "conditions": "101 kPa, Crystal, Small sample (50 mg) DSC", "note": "Numbers after ± are expanded uncertainties.", "data": [{"smiles": "[W]", "note": "[tungsten] + [Cu]", "values": [{"measurement": "molar heat capacity at constant pressure", "setting": "295.15 K, w1 = 0.728", "value": "25.9 ± 1.1", "unit": "J/K/mol"}, {"measurement": "molar heat capacity at constant pressure", "setting": "295.15 K, w1 = 0.761", "value": "24.67 ± 1.1", "unit": "J/K/mol"}, {"measurement": "molar heat capacity at constant pressure", "setting": "295.15 K, w1 = 0.837", "value": "26.96 ± 1.1", "unit": "J/K/mol"}, {"measurement": "molar heat capacity at constant pressure", "setting": "295.15 K, w1 = 0.889", "value": "25.66 ± 1.1", "unit": "J/K/mol"}, {"measurement": "molar heat capacity at constant pressure", "setting": "295.15 K, w1 = 0.913", "value": "25.81 ± 1.1", "unit": "J/K/mol"}, {"measurement": "molar heat capacity at constant pressure", "setting": "373.15 K, w1 = 0.728", "value": "26.59 ± 1.1", "unit": "J/K/mol"}, {"measurement": "molar heat capacity at constant pressure", "setting": "373.15 K, w1 = 0.761", "value": "25.12 ± 1.1", "unit": "J/K/mol"}, {"measurement": "molar heat capacity at constant pressure", "setting": "373.15 K, w1 = 0.837", "value": "27.52 ± 1.2", "unit": "J/K/mol"}, {"measurement": "molar heat capacity at constant pressure", "setting": "373.15 K, w1 = 0.889", "value": "26.21 ± 1.1", "unit": "J/K/mol"}, {"measurement": "molar heat capacity at constant pressure", "setting": "373.15 K, w1 = 0.913", "value": "26.08 ± 1.1", "unit": "J/K/mol"}, {"measurement": "molar heat capacity at constant pressure", "setting": "473.15 K, w1 = 0.728", "value": "27.11 ± 1.2", "unit": "J/K/mol"}, {"measurement": "molar heat capacity at constant pressure", "setting": "473.15 K, w1 = 0.761", "value": "25.61 ± 1.1", "unit": "J/K/mol"}, {"measurement": "molar heat capacity at constant pressure", "setting": "473.15 K, w1 = 0.837", "value": "28.07 ± 1.2", "unit": "J/K/mol"}, {"measurement": "molar heat capacity at constant pressure", "setting": "473.15 K, w1 = 0.889", "value": "26.68 ± 1.1", "unit": "J/K/mol"}, {"measurement": "molar heat capacity at constant pressure", "setting": "473.15 K, w1 = 0.913", "value": "26.45 ± 1.1", "unit": "J/K/mol"}, {"measurement": "molar heat capacity at constant pressure", "setting": "573.15 K, w1 = 0.728", "value": "27.43 ± 1.2", "unit": "J/K/mol"}, {"measurement": "molar heat capacity at constant pressure", "setting": "573.15 K, w1 = 0.761", "value": "25.91 ± 1.1", "unit": "J/K/mol"}, {"measurement": "molar heat capacity at constant pressure", "setting": "573.15 K, w1 = 0.837", "value": "28.41 ± 1.2", "unit": "J/K/mol"}, {"measurement": "molar heat capacity at constant pressure", "setting": "573.15 K, w1 = 0.889", "value": "26.95 ± 1.1", "unit": "J/K/mol"}, {"measurement": "molar heat capacity at constant pressure", "setting": "573.15 K, w1 = 0.913", "value": "26.75 ± 1.1", "unit": "J/K/mol"}, {"measurement": "molar heat capacity at constant pressure", "setting": "673.15 K, w1 = 0.728", "value": "27.89 ± 1.2", "unit": "J/K/mol"}, {"measurement": "molar heat capacity at constant pressure", "setting": "673.15 K, w1 = 0.761", "value": "26.04 ± 1.1", "unit": "J/K/mol"}, {"measurement": "molar heat capacity at constant pressure", "setting": "673.15 K, w1 = 0.837", "value": "28.66 ± 1.2", "unit": "J/K/mol"}, {"measurement": "molar heat capacity at constant pressure", "setting": "673.15 K, w1 = 0.889", "value": "27.19 ± 1.2", "unit": "J/K/mol"}, {"measurement": "molar heat capacity at constant pressure", "setting": "673.15 K, w1 = 0.913", "value": "26.88 ± 1.1", "unit": "J/K/mol"}]}]}
